Measurements from article PMC9820828, “Anti-Melanogenesis Effects of a Cyclic Peptide Derived from Flaxseed via Inhibition of CREB Pathway” (International Journal of Molecular Sciences, 2022).

How the values were obtained:
Assay type in all cases: cell-based, mouse
[1] = test system: B16F10 melanoma cells; experiment: Extracellular melanin secretion in α-MSH-stimulated cells; conditions: 48 h; for melanin (pigment) secretion: 12.5, 25 and 50 μM; for secretion of melanin: 6.25, 12.5 and 25 μM, dose-dependent
Description: (§1) B16F10 melanoma cells (1.5 × 10^5 cells/mL) were seeded in a 6-well plate and cultured overnight. Then, the culture media were replaced with phenol red-free media containing DMSO (vehicle) or α-MSH (melanogenesis inducer) for the identification of the color change caused by melanogenesis. The cells were treated with different concentrations of LOMIX (25, 50, and 100 μg/mL) or LO A, B (6.25, 12.5, and 25 μM), D, E, and F and G (12.5, 25, and 50 μM). Arbutin at 1 mM was used as a positive control. After 48 h of the incubation, the culture medium’s optical density was detected at 475 nm to measure the amount of extracellular melanin secretion. Meanwhile, the remaining cells were harvested with 1 mL cold PBS and lysed with a lysis buffer (50 mM Tris-HCl pH 7.5, 120 mM NaCl, 20 mM β-glycerophosphate pH 7.5, and 2% NP-40). After centrifuging at 12,000× g for 5 min., the cell pellets were dissolved in 10% DMSO in 1 M NaOH and incubated at 60 °C. The melanin contents were measured at 405 nm using a Synergy™ HTX microplate reader. All photos of melanin-secreted medium and intracellular melanin contents were collected.

[2] = test system: B16F10 melanoma cells; experiment: Cell viability (MTT assay); conditions: for cell viability (MTT): B16F10 melanoma cells; for toxicity (MTT): at the concentration contained in LOMIX and at all concentrations (0–50 μM)
Description: Mouse-derived B16F10 melanoma cells were incubated in the DMEM medium supplemented with 10% (v/v) FBS and 1% streptomycin–penicillin solution at 37 °C and 5% CO2. Sub-culture was conducted by detaching the cells with trypsin-EDTA after reaching 90% confluence.
The effects of LOMIX and each LO compound on cell survival were determined using the MTT assay. B16F10 melanoma cells (100 μL of 1.5 × 10^5 cells/mL) were seeded in a 96-well plate with 100 μL of the testing sample [LOMIX (0–200 μg/mL) or LO (0–50 μM)]. After 2 days, MTT solution (10 μL) was added to each well, and cells were incubated for an additional 3 h in the dark. The reaction was stopped by adding 100 μL of 10% SDS complemented with 0.01 M HCl. Moreover, 5000 cells/well of B16F10 melanoma cells were incubated in 96-well plates to check the cytotoxicity of LOMIX in the presence of α-MSH. The 10 μL of MTT solution was added to the cells incubated with the LOMIX (50 and 100 μg/mL) and α-MSH (100 nM) for 0, 24, and 48 h. Subsequently, the stopping solution (100 μL) (10% SDS solution with 0.01 M HCl) was added after 3 h incubation. The absorbance was measured at 570 nm using Synergy™ HTX (Biotek Instruments Inc., Winooski, VT, USA).

[3] = test system: TYRP-1; experiment: Real-time PCR, TYRP-1 mRNA; conditions: 0–25 μM, co-treatment with 100 nM α-MSH, 24 h, B16F10 cells
Description: (§2) B16F10 cells (3 × 10^5 cells/mL) stimulated by 100 nM α-MSH were treated with LOMIX (0–100 μg/mL), LO A or B (0–25 μM), or arbutin 1 mM for 24 h. The cells were lysed with 300 μL of TRI Reagent® to extract total RNA. Then, 1 μg of total RNA with Reverse Transcriptase M-MuLV (Thermo Fisher Scientific, Waltham, MA, USA) was utilized to synthesize cDNA according to the manufacturer’s instructions. Real-time PCR was conducted, as previously described.

[4] = test system: Tyrosinase; experiment: Real-time PCR, Tyrosinase mRNA; conditions: 0–25 μM, co-treatment with 100 nM α-MSH, 24 h, B16F10 cells
Description: as §2

[5] = test system: B16F10 melanoma cells; experiment: Intracellular melanin content in α-MSH-stimulated cells; conditions: for melanin synthesis (melanin contents): 6.25, 12.5 and 25 μM, α-MSH, 48 h, B16F10 cells; for suppression of the synthesis of melanin: 12.5 and 25 μM, B16F10 cell lines
Description: as §1

[6] = test system: CREB; experiment: Immunoblotting, phosphorylated CREB; conditions: 0–25 μM, 100 nM α-MSH, 24 h, B16F10 cell lysates, Western blotting
Description: (§3) To induce melanogenesis, 3 × 10^5 B16F10 melanoma cells per mL were treated with 100 nM of α-MSH. Subsequently, 1 mM of arbutin or LO A or B (0–25 μM) was administered to the culture media for 24 h. The cells were then harvested with 1 mL of cold PBS and lysed with lysis buffer containing protease inhibitors (20 mM Tris-HCl pH 7.5, 2 mM EDTA, 20 mM NaF, 150 mM NaCl, 50 mM β-glycerol phosphate, and 2% NP-40 containing 2 μg/mL of leupeptin, pepstatin, and aprotinin). The whole cell lysates were centrifuged at 12,000× g for 5 min to purify the intracellular protein. SDS-polyacrylamide gel electrophoresis (Bio-Rad, Hercules, CA, USA) was conducted to separate the equivalent protein contents according to size. The separated proteins were transferred to polyvinylidene fluoride membranes and blocked with 3% (w/v) bovine serum albumin (BSA) solution for at least 30 min at ambient temperature. They then were incubated overnight with primary antibodies (1:2500 dilution) at 4 °C. After three 10-min washes with 0.1% (w/v) Tween-20, the membranes were probed with HRP-conjugated secondary antibodies (1:2500 dilution). The signals of each protein sample were detected with enhanced chemiluminescence reagents.

[7] = test system: MITF; experiment: Real-time PCR, MITF mRNA; conditions: 0–25 μM, co-treatment with 100 nM α-MSH, 24 h, B16F10 cells
Description: as §2

[8] = test system: MITF; experiment: Immunoblotting, MITF protein; conditions: 0–25 μM, 100 nM α-MSH, 24 h, B16F10 cell lysates, Western blotting
Description: as §3

[9] = test system: TYRP-2; experiment: Real-time PCR, TYRP-2 mRNA; conditions: 0–25 μM, co-treatment with 100 nM α-MSH, 24 h, B16F10 cells
Description: as §2

[10] = test system: PKA; experiment: Immunoblotting, phosphorylated PKA; conditions: 0–25 μM, 100 nM α-MSH, 24 h, B16F10 cell lysates, Western blotting
Description: as §3

[1–8-NαC],[1-(Rs,Ss)-MetO]-linusorb A2 [LO3]
melanin (pigment) secretion [1]: decreased
cell viability (MTT) ([2]; 50 μM, 48 h): not altered
toxicity (MTT) ([2]; B16F10 cells, 48 h): did not show toxicity

[1–8-NαC],[1-(Rs,Ss)-MetO]-linusorb B1 [LO4]
melanin (pigment) secretion [1]: decreased
cell viability (MTT) ([2]; 50 μM, 48 h): not altered
toxicity (MTT) ([2]; B16F10 cells, 48 h): did not show toxicity

[1–9-NαC]-linusorb B2 [LO2]
expression of TYRP1 at mRNA level [3]: downregulated
secretion of melanin [1]: dramatically downregulated
expression of tyrosinase at mRNA level [4]: downregulated
melanin synthesis (melanin contents) [5]: decreased
suppression of the synthesis of melanin [5]: up to 90%
phosphorylation of CREB [6]: blocked
expression of MITF at mRNA level [7]: downregulated
protein level of MITF [8]: decreased levels
expression of TYRP-2 at mRNA level [9]: suppressed
phosphorylation of PKA [10]: not PKA

[1–9-NαC]-linusorb B3 [LO1]
expression of TYRP1 at mRNA level [3]: effectively inhibited
secretion of melanin [1]: dramatically downregulated
cell viability (MTT) ([2]; 25 μM, 48 h): not altered
cell survival (MTT) ([2]; 50 μM, B16F10 cells, 48 h): declined
toxicity ([2]; 12.5 and 25 μM, B16F10 cell lines): without toxicity
expression of tyrosinase at mRNA level [4]: effectively inhibited
melanin synthesis (melanin contents) [5]: decreased
suppression of the synthesis of melanin [5]: up to 90%
phosphorylation of CREB [6]: suppressed
expression of MITF at mRNA level [7]: effectively inhibited
protein level of MITF [8]: significantly decreased
expression of TYRP-2 at mRNA level [9]: suppressed
phosphorylation of PKA [10]: suppressed
